One may read the Ki as a measure of affinity in units of concentration, obtained from inhibition or displacement. Low values mean a stronger hold on the target, high ones a looser hold on the target. Broadly, the IC50 is the midpoint of a concentration-inhibition curve.

The text below walks through data of PMC4317639, “In Vitro Gender-Dependent Inhibition of Porcine Cytochrome P450 Activity by Selected Flavonoids and Phenolic Acids” (BioMed Research International, 2015).

Data set [1] has as its system porcine CYP3A. The data set can be described thus: Inhibition of CYP3A activity (7-benzyloxy-4-trifluoromethylcoumarin O-dealkylation) in porcine hepatic microsomes. The class given is in vitro ADME, pig. The note with it: for effect on CYP3A activity: 16 μM compound, hepatic microsomes from male and female pigs, 10 μM BFC; for reversibility of CYP3A inhibition (effect of a preincubation step): 5 min preincubation with NADPH at 37°C, male and female pigs; for Ki: pig, inhibitor 16, 32, 128 μM, BFC 0.1-150 μM. On the procedure: (§1) Microsomes were prepared with a calcium aggregation method using Tris-EDTA homogenization buffer. Experiments were performed using pools of microsomes consisting of microsomes from two individual pigs. The total microsomal protein concentration was analyzed the same day using a commercially available kit (Bio-Rad Laboratories Inc., Hercules, CA, USA) according to the manufacturer's instructions. Microsomes were diluted to a protein concentration of 10 mg/mL and stored at −80°C until analysis.
(§2) Specific CYP450 activities were determined by incubating microsomes (diluted in 0.5 M potassium phosphate buffer (pH 7.4)) and adding 0.5 mM NADPH together with one of the following selective substrates (specific CYP450 target given in parentheses): 2 μM 7-ethoxyresorufin (CYP1A), 200 μM coumarin (CYP2A), 10 μM 7-benzyloxy-4-trifluoromethylcoumarin (CYP3A), and 200 μM p-nitrophenol (CYP2E1). […] The corresponding metabolites were quantified by HPLC as previously described.
(§3) For quercetin, this concentration is approximately what can be found in liver of pigs fed a single dose of a quercetin enriched diet. The stock solutions of these compounds were prepared in methanol, and the final concentration of methanol was 0.1% in the incubation volumes. The same amount of methanol was added to the control incubations. Percentage inhibitions were calculated as differences between the activities in the control incubations (arbitrarily set to 100%) and in the presence of the specific compound.
(§4) For that microsomes were preincubated with the tested compound in the presence of NADPH for 5 min (CYP1A, CYP3A) or 15 min (CYP2E1) at 37°C before the addition of specific substrate. […] The incubation time and the amount of the microsomal protein were in the linear range for the rate of metabolite formation. All measurements were performed in duplicate.
(§5) Kinetic parameters (Michaelis-Menten constant K m, maximal velocity of the reaction V max, and dissociation constant for inhibitor binding K i) were estimated by fitting data to the Michaelis-Menten equation using GraphPad Prism (version 4.0 for Windows, GraphPad Software (San Diego, California, USA)). Visual inspection of the plots was used to estimate whether inhibition degree was affected by inclusion of the preincubation step.

In data set [2] the test system is porcine CYP1A. The data set can be described thus: Inhibition of CYP1A activity (7-ethoxyresorufin O-deethylation) in porcine hepatic microsomes. Type of data set: in vitro ADME, pig. As to conditions: for effect on CYP1A activity: 16 μM compound, hepatic microsomes from male and female pigs, 2 μM 7-ethoxyresorufin; for effect of a preincubation step on inhibition of CYP1A: 5 min preincubation with NADPH at 37°C, male and female pigs; for effect of a preincubation step on inhibition of CYP1A / Ki: inhibitor 16, 32, 128 μM; for Ki: 7-ethoxyresorufin 0.1-4 μM. On the procedure:
as §1, §2, §3, §4, §5

Data set [3] concerns porcine CYP2A. The note with it: 16 μM compound; hepatic microsomes from male and female pigs; 200 μM coumarin. Here is the method:
as §1
Specific CYP450 activities were determined by incubating microsomes (diluted in 0.5 M potassium phosphate buffer (pH 7.4)) and adding 0.5 mM NADPH together with one of the following selective substrates (specific CYP450 target given in parentheses): 2 μM 7-ethoxyresorufin (CYP1A), 200 μM coumarin (CYP2A), 10 μM 7-benzyloxy-4-trifluoromethylcoumarin (CYP3A), and 200 μM p-nitrophenol (CYP2E1). For kinetic studies, concentrations of 7-ethoxyresorufin varied from 0.05 to 4 μM, concentrations of p-nitrophenol varied from 2.5 to 4000 μM, and concentrations of BFC varied from 0.1 to 150 μM. The corresponding metabolites were quantified by HPLC as previously described.
as §3

The target of data set [4] is porcine CYP2E1 (Sus scrofa, UniProt P79383). The experiment in a line: Inhibition of CYP2E1 activity (p-nitrophenol hydroxylation) in porcine hepatic microsomes. Type of data set: in vitro ADME, pig. The note with it: for effect on CYP2E1 activity: 16 μM compound. On the procedure:
as §1, §2, §3, §4, §5

Setting [5] is: hepatic microsomes from male and female pigs, 200 μM p-nitrophenol.
[6] abbreviates: pig, pH 7.4, hepatic microsomes from female pigs.
The mark [7] stands for this setting: pig, pH 7.4, hepatic microsomes from male pigs.
Where [8] appears, read: hepatic microsomes from female pigs.

Chain of porcine CYP2E1 (P79383 whole entry): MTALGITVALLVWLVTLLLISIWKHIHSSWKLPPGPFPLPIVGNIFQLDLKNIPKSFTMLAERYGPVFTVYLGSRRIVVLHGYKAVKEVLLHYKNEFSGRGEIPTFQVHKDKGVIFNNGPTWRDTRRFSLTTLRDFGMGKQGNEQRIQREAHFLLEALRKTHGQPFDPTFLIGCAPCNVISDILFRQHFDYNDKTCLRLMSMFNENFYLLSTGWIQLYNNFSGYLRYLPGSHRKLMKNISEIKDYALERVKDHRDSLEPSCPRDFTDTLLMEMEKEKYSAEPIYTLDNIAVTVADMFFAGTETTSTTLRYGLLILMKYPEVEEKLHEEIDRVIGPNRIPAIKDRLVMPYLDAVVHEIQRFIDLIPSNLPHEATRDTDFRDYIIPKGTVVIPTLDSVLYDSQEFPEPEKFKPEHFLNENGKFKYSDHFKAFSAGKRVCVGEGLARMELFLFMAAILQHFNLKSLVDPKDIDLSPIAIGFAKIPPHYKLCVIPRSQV

For `O=C(O)/C=C/c1ccc(O)c(O)c1` [caffeic acid], the “effect on CYP3A activity” value in data set [1] is “did not alter activity”. Further, in data set [2], the “effect on CYP1A activity” value was “did not alter activity”. In data set [3], the “effect on CYP2A activity” value is on record as “did not alter activity”. For the same compound, the “effect on CYP2E1 activity” value in data set [4] (setting [5]) is recorded as “did not alter activity”.
On to `O=C(O)c1cc(O)c(O)c(O)c1` [gallic acid], for which the “effect on CYP3A activity” value in data set [1] is given as “did not alter activity”. The “effect on CYP2E1 activity” value in data set [4] (setting [5]) was “did not alter activity”.
With `COc1cc(-c2oc3cc(O)cc(O)c3c(=O)c2O)ccc1O` [isorhamnetin], the “effect on CYP3A activity” value in data set [1] is listed as “decreased”. Moreover, the “reversibility of CYP3A inhibition (effect of a preincubation step)” value in data set [1] is “reversible inhibition”. Moreover, the Ki is 93.7 ± 61.3 µM in data set [1] (pH 7.4, hepatic microsomes from female pigs); 71.2 ± 20.2 µM in data set [1] (pH 7.4, hepatic microsomes from male pigs); 10.8 ± 2.8 µM in data set [2] (setting [6]); 99.9 ± 77.6 µM in data set [2] (setting [7]). Besides, in data set [2], the “effect of a preincubation step on inhibition of CYP1A” value is “did not affect”. The “effect on CYP2A activity” value in data set [3] was “did not affect”. The “effect on CYP2E1 activity” value in data set [4] (setting [5]) is listed as “did not affect”.
As to `O=c1c(O)c(-c2cc(O)c(O)c(O)c2)oc2cc(O)cc(O)c12` [myricetin], the “effect on CYP3A activity” value in data set [1] was “decreased”. Further, the “reversibility of CYP3A inhibition (effect of a preincubation step)” value in data set [1] is “reversible inhibition”. For the same compound, the Ki in data set [1] (liver microsomes, pH 7.4, probe 7-benzyloxy-4-trifluoromethylcoumarin (BFC), hepatic microsomes from male pigs) was determined as 113 ± 20.8 µM; in data set [2] (setting [6]), 4.4 ± 3.4 µM; in data set [2] (setting [7]), 2.5 ± 0.9 µM. Also, the “effect of a preincubation step on inhibition of CYP1A” value in data set [2] is “did not affect”. In addition, in data set [3], the “effect on CYP2A activity” value is “did not affect”. Further, the “effect on CYP2E1 activity” value in data set [4] (setting [5]) is reported as “did not affect”.
Take `O=C(O)/C=C/c1ccc(O)cc1` [p-coumaric acid]: the “effect on CYP3A activity” value in data set [1] is “did not alter activity”. In addition, in data set [2], the “effect on CYP1A activity” value is recorded as “did not alter activity”. For the same compound, the “effect on CYP2A activity” value in data set [3] is “did not alter activity”. In addition, the “effect on CYP2E1 activity” value in data set [4] (setting [5]) is “did not alter activity”.
For `O=c1c(O)c(-c2ccc(O)c(O)c2)oc2cc(O)cc(O)c12` [quercetin], the “effect on CYP3A activity” value in data set [1] was “did not affect”. The “mode of inhibition of CYP1A” value in data set [2] (setting [8]) is “irreversible inhibition”. Further, in data set [2] (pig, liver microsomes, pH 7.4, probe 7-ethoxyresorufin (2 μM), hepatic microsomes from female pigs, with 5 min preincubation with NADPH), the IC50 was found to be 2.5 µM. For the same compound, the Ki in data set [2] (pig, liver microsomes, pH 7.4, probe 7-ethoxyresorufin (0.1-4 μM; O-deethylation), hepatic microsomes from male pigs) worked out at 0.16 ± 0.03 µM; in data set [4] (hepatic microsomes from male pigs, inhibitor 16, 32, 128 μM, p-nitrophenol 0.25-4000 μM) it was 94.2 ± 13.5 µM. Moreover, the “effect on CYP2E1 activity” value in data set [4] (setting [8]) is “No effect”. Further, the “reversibility of CYP2E1 inhibition (effect of a preincubation step)” value in data set [4] (15 min preincubation with NADPH at 37°C, male pigs) was “reversible inhibition”.
In the case of `C[C@@H]1O[C@@H](OC[C@H]2O[C@@H](Oc3c(-c4ccc(O)c(O)c4)oc4cc(O)cc(O)c4c3=O)[C@H](O)[C@@H](O)[C@@H]2O)[C@H](O)[C@H](O)[C@H]1O` [rutin], the “effect on CYP3A activity” value in data set [1] was “did not alter activity”. Also, in data set [2], the “effect on CYP1A activity” value is “did not alter activity”. Further, the “effect on CYP2A activity” value in data set [3] is “did not alter activity”. Besides, the “effect on CYP2E1 activity” value in data set [4] (setting [5]) is reported as “did not alter activity”.
